Test results taken from the CheMixHub viscosity set.

Assay: xn = mol fraction of the nth substance listed

CCCCCCC + CCO
Conditions	viscosity [mPa·s]
293.15 K, 101 kPa, x1 = 0.1005	0.9853
293.15 K, 101 kPa, x1 = 0.202	0.8256
293.15 K, 101 kPa, x1 = 0.3022	0.7149
293.15 K, 101 kPa, x1 = 0.4016	0.6285
293.15 K, 101 kPa, x1 = 0.5079	0.567
293.15 K, 101 kPa, x1 = 0.5967	0.516
293.15 K, 101 kPa, x1 = 0.7041	0.4658
293.15 K, 101 kPa, x1 = 0.8008	0.4428
293.15 K, 101 kPa, x1 = 0.8935	0.423
298.15 K, 100 kPa, x1 = 0.0472	1.002
298.15 K, 100 kPa, x1 = 0.1004	0.9149
298.15 K, 100 kPa, x1 = 0.199	0.7776
298.15 K, 100 kPa, x1 = 0.3003	0.6663
298.15 K, 100 kPa, x1 = 0.3994	0.5825
298.15 K, 100 kPa, x1 = 0.507	0.5154
298.15 K, 100 kPa, x1 = 0.5988	0.4742
298.15 K, 100 kPa, x1 = 0.6751	0.449
298.15 K, 100 kPa, x1 = 0.7394	0.4327
298.15 K, 100 kPa, x1 = 0.8085	0.4191
298.15 K, 100 kPa, x1 = 0.9003	0.4048
298.15 K, 101 kPa, x1 = 0.1005	0.9069
298.15 K, 101 kPa, x1 = 0.202	0.7656
298.15 K, 101 kPa, x1 = 0.3022	0.6673
298.15 K, 101 kPa, x1 = 0.4016	0.5856
298.15 K, 101 kPa, x1 = 0.5079	0.5214
298.15 K, 101 kPa, x1 = 0.5967	0.4815
298.15 K, 101 kPa, x1 = 0.7041	0.4422
298.15 K, 101 kPa, x1 = 0.8008	0.4149
298.15 K, 101 kPa, x1 = 0.8935	0.4021
298.15 K, 101.33 kPa, x2 = 0.0831	0.413
298.15 K, 101.33 kPa, x2 = 0.1075	0.394
298.15 K, 101.33 kPa, x2 = 0.1985	0.426
298.15 K, 101.33 kPa, x2 = 0.1999	0.408
298.15 K, 101.33 kPa, x2 = 0.2981	0.444
298.15 K, 101.33 kPa, x2 = 0.3001	0.433
298.15 K, 101.33 kPa, x2 = 0.3932	0.465
298.15 K, 101.33 kPa, x2 = 0.4315	0.487
298.15 K, 101.33 kPa, x2 = 0.5009	0.517
298.15 K, 101.33 kPa, x2 = 0.5079	0.521
298.15 K, 101.33 kPa, x2 = 0.5973	0.584
298.15 K, 101.33 kPa, x2 = 0.6092	0.584
298.15 K, 101.33 kPa, x2 = 0.7009	0.653
298.15 K, 101.33 kPa, x2 = 0.7209	0.69
298.15 K, 101.33 kPa, x2 = 0.8165	0.766
298.15 K, 101.33 kPa, x2 = 0.8241	0.808
298.15 K, 101.33 kPa, x2 = 0.9	0.883
298.15 K, 101.33 kPa, x2 = 0.907	0.922
298.15 K, 101.33 kPa, x2 = 0.9744	1.039
303 K, 101.33 kPa, x2 = 0.3521	0.43
303 K, 101.33 kPa, x2 = 0.5917	0.566
303 K, 101.33 kPa, x2 = 0.7654	0.698
303 K, 101.33 kPa, x2 = 0.8969	0.863
303.15 K, 101 kPa, x1 = 0.1005	0.8186
303.15 K, 101 kPa, x1 = 0.202	0.695
303.15 K, 101 kPa, x1 = 0.3022	0.6164
303.15 K, 101 kPa, x1 = 0.4016	0.5429
303.15 K, 101 kPa, x1 = 0.5079	0.4865
303.15 K, 101 kPa, x1 = 0.5967	0.4506
303.15 K, 101 kPa, x1 = 0.7041	0.4154
303.15 K, 101 kPa, x1 = 0.8008	0.3953
303.15 K, 101 kPa, x1 = 0.8935	0.3827
308.15 K, 101 kPa, x1 = 0.1005	0.7535
308.15 K, 101 kPa, x1 = 0.202	0.6432
308.15 K, 101 kPa, x1 = 0.3022	0.5695
308.15 K, 101 kPa, x1 = 0.4016	0.5077
308.15 K, 101 kPa, x1 = 0.5079	0.4521
308.15 K, 101 kPa, x1 = 0.5967	0.4271
308.15 K, 101 kPa, x1 = 0.7041	0.3957
308.15 K, 101 kPa, x1 = 0.8008	0.3691
308.15 K, 101 kPa, x1 = 0.8935	0.3633
313 K, 101.33 kPa, x2 = 0.3521	0.38
313 K, 101.33 kPa, x2 = 0.5917	0.483
313 K, 101.33 kPa, x2 = 0.7654	0.587
313 K, 101.33 kPa, x2 = 0.8969	0.719
323 K, 101.33 kPa, x2 = 0.3521	0.337
323 K, 101.33 kPa, x2 = 0.5917	0.417
323 K, 101.33 kPa, x2 = 0.7654	0.5
323 K, 101.33 kPa, x2 = 0.8969	0.606

CCCCCCCC + CCO
298.15 K, 101.33 kPa
Conditions	viscosity [mPa·s]
x2 = 0.0986	0.523
x2 = 0.2153	0.533
x2 = 0.3204	0.557
x2 = 0.4431	0.603
x2 = 0.6117	0.686
x2 = 0.7378	0.779
x2 = 0.8362	0.873
x2 = 0.9134	0.973
x2 = 0.9773	1.071

CN(C)C=O + CCO
viscosity [mPa·s], 101 kPa
Conditions	293.15 K	298.15 K	303.15 K	313.15 K	323.15 K
x1 = 0.3863	–	0.881	–	–	–
x1 = 0.5	–	–	0.758	0.649	0.563
x2 = 0.0999	0.871	0.819	0.77	0.682	0.61
x2 = 0.2	0.876	0.818	0.767	0.68	0.604
x2 = 0.3	0.882	0.822	0.77	0.681	0.603
x2 = 0.4	0.881	0.821	0.767	0.674	0.596
x2 = 0.5001	0.872	0.813	0.759	0.668	0.592
x2 = 0.6	0.886	0.825	0.769	0.67	0.59
x2 = 0.7	0.919	0.852	0.791	0.685	0.598
x2 = 0.8	0.97	0.897	0.828	0.712	0.616
x2 = 0.9001	1.067	0.977	0.897	0.762	0.651
